From PMC11191317, “PNSC928, a plant-derived compound, specifically disrupts CtBP2-p300 interaction and reduces inflammation in mice with acute respiratory distress syndrome” (Biology Direct, 2024)

Molecular target: T1, CtBP2-p300 interaction (Mus musculus, UniProt B2RWS6+P56546)
T1 construct: In vivo immunoprecipitation with anti-CtBP2-coated protein G beads in MPAEpiC cells; endogenous in cells; host or cells: MPAEpiC (mouse pulmonary alveolar epithelial cells)
Assay: Immunoprecipitation with anti-CtBP2 in MPAEpiC cells co-treated with LPS and PNSC928
Format: cell-based
Conditions: LPS + PNSC928 0, 11.8, 23.6, and 47.2 µM, 6 h
Procedure: For LPS treatment, different knockdown (KD) cell lines—Control^KD, CtBP2^KD, p300^KD, and p65^KD, all derived from MPAEpiC—were seeded in 12-well plates and cultured at 37 °C until reaching 80% confluence. The cells were then treated with 200 ng/mL of LPS for 6 h, washed three times with PBS, and subjected to the required experiments. For experiments involving inhibitors of CtBP2, p300, and NF-κB, as well as the compound PNSC928, MPAEpiC, RAW264.7, FL83B, TKPTS, and HL-1 cells were seeded in 12-well plates and cultured at 37 °C to reach 80% confluence. Cells were then cotreated with 200 ng/mL LPS along with varying concentrations of the following chemicals: MTOB (0, 5, 10, or 20 mM), NSC95397 (0, 10, 20, or 40 µM), C646 (0, 3, 6, or 12 µM), A-485 (0, 5, 10, or 20 nM), TPCA1 (0, 150, 300, or 600 nM), BOT64 (0, 1, 2, or 4 µM), or PNSC928 (0, 11.8, 23.6, or 47.2 µM). After 6 h of treatment, cells were washed three times with PBS before proceeding with further experiments. […]
To probe this interaction, we established an AlphaScreen system that utilized GST-p300^BRD and His-CtBP2, binding to donor and acceptor beads, respectively (Fig. 4C). […] In vitro assays assessed the effects of PNSC928 on the CtBP2-p300^BRD interaction. […] Furthermore, we assessed the impact of combined LPS and PNSC928 treatment on the expression of key molecules in the NF-κB signaling pathway.

T1 sequence (P56546 whole entry): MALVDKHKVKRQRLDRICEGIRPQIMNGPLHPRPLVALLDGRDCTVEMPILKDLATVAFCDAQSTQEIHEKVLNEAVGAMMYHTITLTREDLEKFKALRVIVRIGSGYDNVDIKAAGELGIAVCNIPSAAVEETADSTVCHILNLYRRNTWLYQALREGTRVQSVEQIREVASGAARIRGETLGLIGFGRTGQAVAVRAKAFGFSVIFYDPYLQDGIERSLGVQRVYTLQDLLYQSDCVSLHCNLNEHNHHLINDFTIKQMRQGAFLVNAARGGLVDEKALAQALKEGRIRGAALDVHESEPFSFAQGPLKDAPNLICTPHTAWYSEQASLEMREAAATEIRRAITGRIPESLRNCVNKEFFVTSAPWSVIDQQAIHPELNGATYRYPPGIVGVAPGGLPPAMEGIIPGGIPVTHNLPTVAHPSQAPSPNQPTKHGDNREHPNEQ
T1 sequence (B2RWS6 whole entry): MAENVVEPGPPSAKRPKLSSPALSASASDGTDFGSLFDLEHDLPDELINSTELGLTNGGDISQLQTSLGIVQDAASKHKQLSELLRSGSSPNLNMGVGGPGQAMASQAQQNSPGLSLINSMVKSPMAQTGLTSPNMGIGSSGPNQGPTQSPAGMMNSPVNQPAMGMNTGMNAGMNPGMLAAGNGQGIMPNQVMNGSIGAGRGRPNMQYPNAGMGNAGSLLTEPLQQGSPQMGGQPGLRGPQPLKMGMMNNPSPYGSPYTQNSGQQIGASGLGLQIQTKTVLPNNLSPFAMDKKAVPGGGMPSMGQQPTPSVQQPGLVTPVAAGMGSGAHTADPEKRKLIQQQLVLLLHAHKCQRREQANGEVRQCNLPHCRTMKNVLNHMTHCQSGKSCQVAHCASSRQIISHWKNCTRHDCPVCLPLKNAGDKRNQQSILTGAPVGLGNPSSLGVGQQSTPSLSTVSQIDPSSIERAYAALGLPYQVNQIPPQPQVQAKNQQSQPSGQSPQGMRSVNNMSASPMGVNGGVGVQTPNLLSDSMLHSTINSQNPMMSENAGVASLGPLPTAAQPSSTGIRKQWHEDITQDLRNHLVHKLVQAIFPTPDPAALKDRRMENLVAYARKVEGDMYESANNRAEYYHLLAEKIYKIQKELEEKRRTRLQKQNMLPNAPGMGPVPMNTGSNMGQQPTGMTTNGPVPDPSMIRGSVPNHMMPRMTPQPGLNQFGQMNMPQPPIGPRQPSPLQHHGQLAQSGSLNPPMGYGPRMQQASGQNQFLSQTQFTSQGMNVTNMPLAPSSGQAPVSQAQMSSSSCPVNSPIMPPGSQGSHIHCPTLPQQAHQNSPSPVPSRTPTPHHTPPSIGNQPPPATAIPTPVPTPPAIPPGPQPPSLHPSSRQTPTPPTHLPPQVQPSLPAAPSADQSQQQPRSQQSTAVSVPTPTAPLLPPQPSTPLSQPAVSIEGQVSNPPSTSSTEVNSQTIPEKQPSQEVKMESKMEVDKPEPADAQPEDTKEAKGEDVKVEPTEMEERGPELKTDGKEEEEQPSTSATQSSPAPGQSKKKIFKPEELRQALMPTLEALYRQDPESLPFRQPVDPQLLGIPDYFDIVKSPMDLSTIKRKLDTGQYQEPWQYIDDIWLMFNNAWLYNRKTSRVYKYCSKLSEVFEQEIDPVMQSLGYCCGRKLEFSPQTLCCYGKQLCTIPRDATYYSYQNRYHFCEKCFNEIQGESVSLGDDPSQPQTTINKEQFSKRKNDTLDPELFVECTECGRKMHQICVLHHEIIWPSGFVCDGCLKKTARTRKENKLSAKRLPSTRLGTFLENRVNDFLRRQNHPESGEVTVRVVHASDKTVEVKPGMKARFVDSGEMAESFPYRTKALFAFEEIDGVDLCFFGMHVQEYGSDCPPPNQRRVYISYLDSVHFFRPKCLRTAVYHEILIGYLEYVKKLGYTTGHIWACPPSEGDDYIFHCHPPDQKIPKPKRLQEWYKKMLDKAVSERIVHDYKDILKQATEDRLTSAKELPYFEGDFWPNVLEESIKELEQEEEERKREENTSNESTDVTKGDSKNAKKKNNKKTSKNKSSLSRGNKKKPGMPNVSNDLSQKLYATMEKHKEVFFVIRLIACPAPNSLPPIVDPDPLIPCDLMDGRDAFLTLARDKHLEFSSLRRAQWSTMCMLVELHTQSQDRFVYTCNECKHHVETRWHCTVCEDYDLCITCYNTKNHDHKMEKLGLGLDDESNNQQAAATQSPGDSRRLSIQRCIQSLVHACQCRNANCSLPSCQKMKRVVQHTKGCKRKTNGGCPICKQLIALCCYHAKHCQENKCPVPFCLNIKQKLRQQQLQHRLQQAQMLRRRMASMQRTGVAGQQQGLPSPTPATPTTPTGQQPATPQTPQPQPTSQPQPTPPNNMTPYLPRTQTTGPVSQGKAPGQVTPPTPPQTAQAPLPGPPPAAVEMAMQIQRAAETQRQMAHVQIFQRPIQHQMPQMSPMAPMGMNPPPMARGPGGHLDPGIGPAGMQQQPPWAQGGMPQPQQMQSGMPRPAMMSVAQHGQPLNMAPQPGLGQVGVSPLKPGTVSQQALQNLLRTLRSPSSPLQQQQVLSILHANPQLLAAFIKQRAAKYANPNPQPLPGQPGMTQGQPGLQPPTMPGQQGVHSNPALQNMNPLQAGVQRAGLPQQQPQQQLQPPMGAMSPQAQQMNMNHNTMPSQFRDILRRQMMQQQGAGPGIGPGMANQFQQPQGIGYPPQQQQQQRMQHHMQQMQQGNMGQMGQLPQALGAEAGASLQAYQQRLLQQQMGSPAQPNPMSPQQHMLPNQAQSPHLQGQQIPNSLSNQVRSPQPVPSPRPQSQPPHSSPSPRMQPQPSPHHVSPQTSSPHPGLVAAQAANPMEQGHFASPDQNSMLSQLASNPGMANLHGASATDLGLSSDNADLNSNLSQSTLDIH

CC(=CCCC1=CCC(C2COC(=O)C2)OC1O)CCC1=C(C)CCCC1(C)C (stereo not shown) [PNSC928]
p300^BRD levels pulled down by CtBP2: dose-dependent decrease
